Reference: US20240173311A1, “METHODS AND COMPOSITIONS FOR MODULATING FGF ACTIVITY” (Recovery Therapeutics, Inc., priority 2021, published 2024)
Read-outs that look alike come from different tables or passages of the source.

Key:
[1] = target: T1, FGFR1 in recombinant human FGFR1/FGF2 complex (Homo sapiens, UniProt P11362); assay: Thermal shift assay (TSA), ΔTm of FGFR1 peak; type: binding; settings: for ΔTm at 100 µM / ΔTm at 10 µM / ΔTm at 25 µM: read-out: ΔTm (° C.) −FGFR1
T1 construct: made in house; host or cells: Escherichia coli BL21 (DE3) Star
T1 sequence (P11362 142-365 limits assumed): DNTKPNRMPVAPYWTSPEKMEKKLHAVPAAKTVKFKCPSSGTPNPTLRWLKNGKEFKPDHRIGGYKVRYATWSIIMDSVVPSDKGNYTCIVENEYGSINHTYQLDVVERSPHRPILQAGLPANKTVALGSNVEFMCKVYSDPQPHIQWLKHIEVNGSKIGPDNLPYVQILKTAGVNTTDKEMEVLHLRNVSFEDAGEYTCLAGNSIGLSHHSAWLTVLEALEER
T1 sequence (P09038 156-288 partner limits assumed): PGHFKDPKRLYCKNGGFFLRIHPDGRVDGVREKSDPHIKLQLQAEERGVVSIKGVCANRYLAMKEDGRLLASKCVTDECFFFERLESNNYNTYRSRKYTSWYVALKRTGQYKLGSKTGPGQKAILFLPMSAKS
Protocol: (§1) TSA was utilized to biophysically characterize the recombinant human FGFR1/FGF2 complex in the presence or absence of selected compounds of formula (I), Compounds 1, 2a-2f, 20, 5, 60, and 8-13. Compound 1 was prepared according to the procedures described in Example 1, and the other compounds were obtained from commercial sources. The assay functions by protein denaturation over a temperature gradient. During protein unfolding, exposed hydrophobic regions bind a dye and fluoresce due to solvent relaxation effects. Changes in the melting temperature of the protein complex in the presence of each compound were monitored and compounds were screened/ranked using this method.
(§2) Thawed aliquots of purified FGF2 (1.0 mg/mL) and FGFR1 (1.6 mg/mL) proteins were mixed in a 1:1 molar ratio ([…]) on ice for 30 min at 4° C. and plated prior to the thermal shift assay (TSA).
(§3) Complex formation was verified by loading the complexed material on a size exclusion column (superdex 10 300GL S200) and observing the monodisperse peak corresponding to the FGF2/FGFR1 complex (˜ 40 kDa). Compounds described herein were screened in dose response format (0-100 μM) with the FGF2/FGFR1 complex in triplicates. FGF2/ FGFR1/compound complexes were mixed in a 1000:1 ratio with Sypro Orange dye (Sigma-Aldrich). The samples were processed using a Bio-Rad CFX C96 Touch quantitative polymerase chain reaction and run using the FRET assay settings with a heating ramp of 0.3° C./s cycling from 4 to 100° C. Data analysis was performed using the Bio-Rad CFX Manager Software (version 3.1, Bio-Rad) and changes in the melting temperature (Tm) of the complex in the presence of each compound were monitored. The results are shown in Table 9 below and also in FIG. 1 (for Compound 10).

[2] = target: T2, FGF2 in recombinant human FGFR1/FGF2 complex (Homo sapiens, UniProt P09038); assay: Thermal shift assay (TSA), ΔTm of FGF2 peak; type: binding; settings: for ΔTm at 100 µM / ΔTm at 10 µM / ΔTm at 25 µM: read-out: ΔTm (° C.) −FGF2
T2 construct: made in house; host or cells: Escherichia coli BL21 (DE3) Star
T2 sequence (P09038 156-288 limits assumed): as the sequence (P09038 156-288 partner limits assumed) above
T2 sequence (P11362 142-365 partner limits assumed): as the sequence (P11362 142-365 limits assumed) above
Protocol: as §1, §2, §3

`O=Cc1ccccc1` [Compound 1a] gave a ΔTm at 100 µM [1] of 0.5 °C and a ΔTm at 100 µM [2] of 0 °C.

In the case of `O=Cc1ccc(F)cc1` [Compound 1b], the ΔTm at 100 µM ([1]; 100 μM compound) was 0 °C and the ΔTm at 100 µM ([2]; 100 μM compound) was 1 °C.

With `O=Cc1ccc(Cl)cc1` [Compound 1c] the ΔTm at 10 µM [1] was -2.2 °C and the ΔTm at 10 µM [2] was 2 °C.

`O=Cc1ccc(Br)cc1` [Compound 1d] showed a ΔTm at 25 µM [1] of -2.1 °C and a ΔTm at 25 µM [2] of 1.6 °C.

In the case of `O=Cc1ccccc1F` [Compound 1e], the ΔTm at 100 µM ([1]; 100 μM compound) was 0 °C and the ΔTm at 100 µM ([2]; 100 μM compound) was 0.3 °C.

With `O=Cc1cccc(F)c1` [Compound 1f, 3-fluorobenzaldehyde] the ΔTm at 50 µM ([1]; 50 μM compound) was 4 °C and the ΔTm at 50 µM ([2]; 50 μM compound) was -0.4 °C.

`CCN(CC)c1ccc(C=O)cc1` [Compound 1o, 4-diethylaminobenzaldehyde] gave a ΔTm at 25 µM [1] of 5 °C and a ΔTm at 25 µM [2] of -2 °C.

With `CCN(CC)c1ccc(/C=N/c2ccccc2)cc1` [Compound 4on] the ΔTm at 25 µM ([1]; 25 μM compound) was 1.5 °C and the ΔTm at 25 µM ([2]; 25 μM compound) was -0.5 °C.

`CCN(CC)c1ccc(/C=N/Cc2ccccc2)cc1` [Compound 4ow, (E)-4-((benzylimino)methyl)-N,N-diethylaniline] showed a ΔTm at 25 µM ([1]; 25 μM compound) of 4 °C and a ΔTm at 25 µM ([2]; 25 μM compound) of -2 °C.

`CCN(CC)c1ccc(/C=N/c2ccc(C(F)(F)F)cc2)cc1` [Compound 4oy, (E)-N, N-diethyl-4-(((4-(trifluoromethyl)phenyl)imino)methyl)aniline] showed a ΔTm at 50 µM ([1]; 50 μM compound) of 7.8 °C, a ΔTm at 50 µM ([2]; 50 μM compound) of -4.5 °C and a melting point of 129.3 to 129.6 °C.

For `CCN(CC)c1ccc(/C=N/O)cc1` [Compound 5o], the ΔTm at 2 µM ([1]; 2 μM compound) was 3.5 °C and the ΔTm at 2 µM ([2]; 2 μM compound) was -1 °C.

With `CCN(CC)c1ccc(C(O)c2cccc(OC(F)(F)F)c2)cc1` (centres unmarked) [Compound 8om, (4-(diethylamino)phenyl)(3-(trifluoromethoxy)phenyl)methano] the “ΔTm (° C.) −FGFR1” value ([1]; 10 μM compound) was “+0.3 °C” and the “ΔTm (° C.) −FGF2” value ([2]; 10 μM compound) was 0 °C.

`O=C(c1ccccc1)c1cccc(F)c1` [Compound 9af] gave a ΔTm at 10 µM ([1]; 10 μM compound) of 9.8 °C and a ΔTm at 10 µM ([2]; 10 μM compound) of -6 °C.

Work on `CCN(CC)c1ccc(C(=O)c2ccccc2)cc1` [Compound 9oa] yielded a ΔTm at 10 µM ([1]; 10 μM compound) of 6 °C and a ΔTm at 10 µM ([2]; 10 μM compound) of -0.3 °C.

`CCN(CC)c1ccc(/C=N/N=C/c2ccc(N(CC)CC)cc2)cc1` [Compound 10o, 4,4′-((1E,1′E)-hydrazine-1,2-diylidenebis(methaneylylidene))bis(N,N-diethylaniline)] showed a ΔTm at 2 µM ([1]; 2 μM compound) of 11 °C and a ΔTm at 2 µM ([2]; 2 μM compound) of -5.2 °C.

In the case of `CCN(CC)c1ccc(C2N[C@@H](C(=O)O)C(C)(C)S2)cc1` (stereo partly drawn) [Compound 11o, (4S)-2-(4-(diethylamino)phenyl)-5,5-dimethylthiazolidine-4-carboxylic acid], the ΔTm at 50 µM ([1]; 50 μM compound) was 2 °C and the ΔTm at 50 µM ([2]; 50 μM compound) was -4.2 °C.

`CCN(CC)c1ccc(/C=N/NC(=O)CN(C)C)cc1` [Compound 13oa, (E)-N′-(4-(diethylamino)benzylidene)-2-(dimethylamino)acetohydrazide] gave a ΔTm at 50 µM ([1]; 50 μM compound) of 0 °C and a ΔTm at 50 µM ([2]; 50 μM compound) of -2.1 °C.

Compound `CCN(CC)c1ccc(/C=N/NC(=O)C2CCOCC2)cc1` [Compound 13ob, (E)-N′-(4-(diethylamino)benzylidene)tetrahydro-2H-pyran-4-carbohydrazide] has a ΔTm at 25 µM ([1]; 25 μM compound) of 1.5 °C and a ΔTm at 25 µM ([2]; 25 μM compound) of -2.7 °C.

In the case of `CCN(CC)c1ccc(/C=N/NC(=O)c2ccc(O)cc2)cc1` [Compound 13oe], the ΔTm at 10 µM ([1]; 10 μM compound) was -1.5 °C and the ΔTm at 10 µM ([2]; 10 μM compound) was -0.5 °C.

With `CCN(CC)c1ccc(/C=N/NC(=O)C2CCN(CCO)CC2)cc1` [Compound 13oh, (E)-N′-(4-(diethylamino)benzylidene)-1-(2-hydroxyethyl)piperidine-4-carbohydrazide] the ΔTm at 10 µM ([1]; 10 μM compound) was 0.6 °C and the ΔTm at 10 µM ([2]; 10 μM compound) was 0 °C.

`CCN(CC)c1ccc(/C=N/N2CCN(C(c3ccccc3)c3ccccc3)CC2)cc1` [Compound 15oa, (E)-4-(((4-benzhydrylpiperazin-1-yl)imino)methyl)-N,N-diethylaniline] gave a ΔTm at 100 µM ([1]; 100 μM compound) of 2 °C and a ΔTm at 100 µM ([2]; 100 μM compound) of -1.5 °C.

`CCN(CC)c1ccc(/C=N/N(c2ccccc2)c2ccccc2)cc1` [Compound 15ob] showed a ΔTm at 25 µM ([1]; 25 μM compound) of 0 °C and a ΔTm at 25 µM ([2]; 25 μM compound) of -1 °C.

For `CCN(CC)c1ccc(/C=N/Nc2ccccc2)cc1` [Compound 15oc], the ΔTm at 2 µM ([1]; 2 μM compound) was 4.3 °C and the ΔTm at 2 µM ([2]; 2 μM compound) was -2.4 °C.

For `CCN(CC)c1ccc(/C=N/Nc2ccc(C#N)cc2)cc1` [Compound 15od, (E)-4-(2-(4-(diethylamino)benzylidene)hydrazineyl)benzonitrile], the ΔTm at 10 µM ([1]; 10 μM compound) was 0 °C and the ΔTm at 10 µM ([2]; 10 μM compound) was -1 °C.

`CCN(CC)c1ccc(C(C)=O)cc1` [Compound 16] gave a ΔTm at 25 µM [1] of 0.2 °C and a ΔTm at 25 µM [2] of 0 °C.

Work on `CCN(CC)c1ccc(C(=O)O)cc1` [Compound 17] yielded a ΔTm at 100 µM ([1]; 100 μM compound) of 2.5 °C and a ΔTm at 100 µM ([2]; 100 μM compound) of 0 °C.

With “(4-(diethylamino)phenyl)(3-(trifluoromethoxy)phenyl)methanone [Compound 9om]” the “ΔTm (° C.) −FGFR1” value ([1]; 100 μM compound) was “+1.2 °C” and the “ΔTm (° C.) −FGF2” value ([2]; 100 μM compound) was “+1.8 °C”.

In the case of “(4-(diethylamino)phenyl)(3-(trifluoromethyl)phenyl)methanone [Compound 9ob]”, the “ΔTm (° C.) −FGFR1” value ([1]; 50 μM compound) was “+1.2 °C” and the “ΔTm (° C.) −FGF2” value ([2]; 50 μM compound) was “+1.5 °C”.

For “(4-(diethylamino)phenyl)(3-methoxyphenyl)methanone [Compound 9oc]”, the “ΔTm (° C.) −FGFR1” value ([1]; 2 μM compound) was “+9.5 °C” and the “ΔTm (° C.) −FGF2” value ([2]; 2 μM compound) was −5.6 °C.
